These results are taken from US20230391808A1, “PHOSPHAPHENALENE-GOLD(I) COMPLEXES AS CHEMOTHERAPEUTIC AGENTS AGAINST GLIOBLASTOMA” (priority 2020, published 2023).

Data set [1] has as its target human glutathione reductase (Homo sapiens, UniProt P00390). Conditions: Jortzik E. et al. 2014; cited from earlier work.
The target in another data set is thioredoxin reductase (Homo sapiens, UniProt Q16881). The conditions noted are these: Jortzik E. et al. 2014; cited from earlier work.
Another data set can be described thus: Solubility in solvents. The conditions noted are these: DMSO/H2O mixtures 1:9. In kind it is physicochemical. From the text:
Importantly, all compounds 1-4 readily dissolved in DMSO/H2O mixtures 1:9. Compound 1 was the least soluble and started to precipitate at concentrations higher than 0.1 M.

Data set [2] is described as follows: Stability in dimethylsulfoxide/H2O solutions. Conditions: over weeks. The data set is classed as physicochemical.
The next data set concerns NCH149. Kind of data set: Crystal violet proliferation assay, NCH149. The data set is classed as cell-based, human. Conditions: glioblastoma cell line, 48 h exposure, mean of three biological replicates ± standard deviation. On the procedure: In order to investigate the role of the fused phosphaphenalene ring in the bio-activity of the drug, the ability of Compound 5 to inhibit cell proliferation in the glioblastoma cell lines NCH82, NCH89 and NCH149 was examined. For this purpose, cells were incubated with increasing concentrations of Compound 5 and cell proliferation was evaluated by crystal violet assay.
The effect of different compounds on cell growth was evaluated by the crystal violet method as described earlier (J. P. Rigalli et al., Cancer Lett. 2016, 376, 165-172). Briefly, cells were seeded in 96-well plates (10,000 cells/well). After 24 h cell culture medium was replaced by fresh compound-containing medium (ten different concentrations (0.01 to 200 μM μM)). After 48 h of exposure extent of cell proliferation inhibition was determined by crystal violet staining of surviving cells. Therefore, cells were washed and stained with 0.5% crystal violet solution (2.5 g in 100 ml methanol, diluted with 400 ml aqua bidest) for 15 min, rinsed and dried overnight.
Next, crystal violet was solubilized in methanol and absorbance was measured at 555 nm. The proliferative index was calculated as crystal violet absorption intensity as percentage relative to baseline (no cells) as described before (T. Peters et al., Naunyn Schmiedebergs Arch Pharmacol. 2006, 372, 291-299.) Cell survival plotted against the decimal logarithm of drug concentration in μM (c (of compound x) in μM) and fitted to a sigmoidal dose-response curve using Graph Pad Prism 7.02 (GraphPad Software, San Diego, USA).

The subject of data set [3] is NCH82. Kind of data set: Crystal violet proliferation assay, NCH82. The data set is classed as cell-based, human. Conditions: glioblastoma cell line, 48 h exposure, mean of three biological replicates ± standard deviation.
The subject of data set [4] is NCH89. Kind of data set: Crystal violet proliferation assay, NCH89. The data set is classed as cell-based, human. The conditions noted are these: glioblastoma cell line, 48 h exposure, mean of three biological replicates ± standard deviation.
Data set [5] in a line: Stability under controlled thermodynamic conditions upon repetitive cycles of illumination. Conditions: data not shown. The data set is classed as physicochemical.
Data set [6] relates to NCH89. The conditions noted are these: Deponte M. et al. 2005; read-out: IC50, proliferation of NCH89; cited from earlier work.
The test system of data set [7] is NCH82. Conditions: Deponte M. et al. 2005; read-out: IC50, proliferation of NCH82; cited from earlier work.

Read-outs that look alike come from different tables or passages of the source.

thioredoxin reductase, sequence (Q16881 151-649 limits assumed): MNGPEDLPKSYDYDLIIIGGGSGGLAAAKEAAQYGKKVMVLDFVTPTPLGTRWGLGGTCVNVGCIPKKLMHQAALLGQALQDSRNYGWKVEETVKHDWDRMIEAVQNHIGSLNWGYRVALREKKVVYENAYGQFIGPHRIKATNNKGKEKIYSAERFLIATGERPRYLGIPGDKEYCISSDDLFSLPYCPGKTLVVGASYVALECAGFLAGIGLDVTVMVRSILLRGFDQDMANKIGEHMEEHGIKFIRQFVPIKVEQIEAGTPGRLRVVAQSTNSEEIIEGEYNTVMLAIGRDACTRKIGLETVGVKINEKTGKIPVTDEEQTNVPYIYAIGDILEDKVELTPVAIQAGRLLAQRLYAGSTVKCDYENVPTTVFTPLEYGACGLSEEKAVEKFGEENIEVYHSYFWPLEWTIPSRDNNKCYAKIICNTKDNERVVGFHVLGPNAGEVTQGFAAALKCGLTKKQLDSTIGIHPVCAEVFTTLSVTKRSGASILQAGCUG
human glutathione reductase, sequence (P00390 44-522): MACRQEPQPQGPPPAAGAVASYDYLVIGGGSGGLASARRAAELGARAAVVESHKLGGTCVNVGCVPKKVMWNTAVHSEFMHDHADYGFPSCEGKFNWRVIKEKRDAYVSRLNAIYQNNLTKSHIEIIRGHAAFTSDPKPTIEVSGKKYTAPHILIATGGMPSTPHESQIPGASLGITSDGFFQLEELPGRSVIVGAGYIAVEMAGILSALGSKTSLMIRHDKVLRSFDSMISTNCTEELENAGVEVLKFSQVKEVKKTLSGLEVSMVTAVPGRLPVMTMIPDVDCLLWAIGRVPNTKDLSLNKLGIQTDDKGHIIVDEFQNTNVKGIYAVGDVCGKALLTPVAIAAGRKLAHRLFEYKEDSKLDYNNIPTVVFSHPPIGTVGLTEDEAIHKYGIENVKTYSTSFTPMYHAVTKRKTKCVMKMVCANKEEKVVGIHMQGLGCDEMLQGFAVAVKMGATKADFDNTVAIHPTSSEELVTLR

On to “1-phenyl-bis(2-pyridyl)phosphole gold chloride thio-β-d-glucose tetraacetate [GoPI-sugar]”, for which the IC50 in [1] is 0.0885 µM; on thioredoxin reductase, 0.0043 µM.

With `[Cl][Au][PH]1(c2ccccc2)c2cscc2-c2cccc3cccc1c23` [Compound 1], the “concentration above which precipitation starts” value in the data set “Solubility in solvents” is reported as “higher than 0.1 M”. Also, the “stability in dimethylsulfoxide/H2O solutions” value in data set [2] is “high stability”.

Take `Cn1ccc2c1-c1cccc3cccc(c13)[P+]2([Au-][Cl])c1ccccc1` (stereo not shown) [Compound 5]: the IC50 in the data set with NCH149 was determined as 8.87 µM; in the data set on NCH82 [3] it was 8.1 µM; in the data set with NCH89 [4], 15.1 µM.

Take `CC(=O)OC[C@H]1O[C@@H]([S][Au-][P+]2(c3ccccc3)c3ccn(S(=O)(=O)c4ccccc4)c3-c3cccc4cccc2c34)[C@H](OC(C)=O)[C@@H](OC(C)=O)[C@@H]1OC(C)=O` (stereo partly shown) [Compound 8]: the IC50 was 2.85 µM with NCH149, 1.37 µM in the data set on NCH82 [3] and 4.49 µM with NCH89 [4]. In addition, the “stability upon repetitive cycles of illumination” value in data set [5] was “very high stability”.

Consider `[Cl][Au][PH]1(c2ccccc2)C(c2ccccn2)=CC=C1c1ccccn1` [GoPI, [1-phenyl-2,5-di(2-pyridyl)phosphole]AuCl], for which the IC50 in the data set on NCH89 [6] was 10.8 ± 0.8 µM; in the data set with NCH82 [7], 12.5 ± 0.8 µM.
